Measurements from patent US8399508B2, “Olopatadine formulations for topical nasal administration” (Alcon Pharmaceuticals Ltd., priority 2001, dated 2013).
Structures can show the parent of a compound that is named as a salt.

How the values were obtained:
Type in all cases: physicochemical
[1] = Effect of NaCl and Na2HPO4 on dissolution of olopatadine hydrochloride in water
Procedure: The effect of NaCl on the dissolution rate of olopatadine hydrochloride in water was determined.

[2] = Acid-base equilibrium of olopatadine (pKa values, iso-electric point)
Description: Olopatadine has both a carboxylic functional group (pKa1=4.18) and a tertiary amino group (pKa2=9.79). It exists in different ionic forms depending upon the pH of the solution. Olopatadine exists predominantly as a zwitterion in the pH range between the two pKa values with a negatively-charged carboxylic group and a positively-charged tertiary amino group. The iso-electric point of the olopatadine zwitterion is at pH 6.99. At a pH lower than pKa1, cationic olopatadine (with ionized tertiary amino group) is dominant. At a pH higher than pKa2, anionic olopatadine (with ionized carboxylic group) is dominant.

[3] = Effect of NaCl, Na2HPO4 and mannitol on dissolution rate of olopatadine hydrochloride in a nasal vehicle; details: nasal formulation containing 0.01% EDTA and 0.01% BAC
Procedure: The effect of NaCl, Na2HPO4, and mannitol on the dissolution rate of olopatadine hydrochloride in a nasal formulation containing 0.01% EDTA and 0.01% BAC was determined.

[4] = Effect of NaCl and Na2HPO4 concentrations on dissolution of olopatadine hydrochloride in a nasal formulation
Procedure: The effect of NaCl and Na2HPO4 concentrations on the dissolution rate of olopatadine hydrochloride in a nasal formulation containing 0.01% EDTA and 0.01% BAC was determined. The aqueous solubility of olopatadine HCl decreases with increasing concentration of NaCl.

[5] = Example 6: visual observations, phosphate buffer added to cloudy 0.6% olopatadine composition; details: tested nasal vehicle without a phosphate salt
[6] = Example 5: visual observations of clarity during compounding, with and without phosphate buffer; details: without phosphate buffer, 0.7% NaCl, pH as low as 3.6, compounding procedure of Example 1
Procedure: An exemplary compounding procedure for the nasal composition shown in Table 1 is described as below. • 1. Tare a suitable compounding vessel with magnetic stir bar. Add approximately 80% of the batch weight of purified water. • 2. While stirring, add dibasic sodium phosphate (anhydrous), sodium chloride, edetate disodium, benzalkonium chloride and olopatadine HCl. • 3. Add equivalent to approximately 0.55 g, 6N hydrochloric acid per 100 ml batch. • 4. Allow adequate time between each addition for dissolution of each ingredient • 5. Add purified water to approximately 90% of final batch weight. • 6. Measure pH and adjust, if necessary, to 3.7 with 6N (and/or 1N) hydrochloric acid and 1N sodium hydroxide. • 7. Adjust to final batch weight with purified water (QS). • 8. Measure final pH. • 9. Filter through 0.2 μm filtration membrane.
The two compositions shown in Table 2 below were prepared using the procedure described in Example 1 and visual observations of the compositions clarity were made at different points during the compounding procedure.

Structure (SMILES) | effect of NaCl on rate of dissolution ([1]; in water) | effect of addition of Na2HPO4 on dissolution ([1]; in water with NaCl) | time for complete dissolution of 0.6% olopatadine solution ([1]; with Na2HPO4) | time for complete dissolution of 0.6% olopatadine solution ([1]; without Na2HPO4, assuming the entire amount would eventually dissolve) | iso-electric point of the olopatadine zwitterion [2] | pKa1 (carboxylic functional group) [2] | pKa2 (tertiary amino group) [2] | effect of phosphate salt on dissolution rate [3] | aqueous solubility ([4]; with increasing concentration of NaCl, nasal formulation with 0.01% EDTA and 0.01% BAC) | aqueous solubility ([4]; with increasing phosphate buffer in the presence of NaCl) | solubility of 0.665% olopatadine hydrochloride [5] | dissolution of 0.665% olopatadine hydrochloride in water [6]
CN(C)CC/C=C1/c2ccccc2COc2ccc(CC(=O)O)cc21 [Olopatadine, Z-11-(3-dimethylaminopropylidene)-6,11-dihydrodibenz[b,e]oxepine-2-acetic acid] | significant reduction | dramatically improved | less than one minute | at least several hours | 6.99 pH | 4.18 | 9.79 | – | – | – | – | –
CN(C)CC/C=C1/c2ccccc2COc2ccc(CC(=O)O)cc21 [olopatadine hydrochloride, hydrochloride salt of (Z)-11-(3-dimethylaminopropylidene)-6,11-dihydro-dibenz-[b,e]oxepin-2-acetic acid] | – | – | – | – | – | – | – | the same as that shown in water in Example 2 | decreases | increased aqueous solubility | not soluble | did not completely dissolve
